Laboratory results as given in patent US20260242373A1, “NBD1 MODULATORS AND METHODS OF USING THE SAME” (Sionna Therapeutics Inc., priority 2023, published 2026).

Each molecule was assayed on NBD1 (assay: Aggregation analysis of NBD1 thermal stability by differential static light scattering (DSLS)). Conditions: 100 μM compound; ΔTagg versus DMSO control.
Type: binding, Human
Description: Purified recombinant NBD1 was produced using previously described methods (A. Schmidt, J. L. Mendoza, P. J. Thomas (2011) Biochemical and Biophysical Approaches to Probe CFTR Structure (365-376) M. D. Amaral, K. Kunzelmann (eds.), Cystic Fibrosis, Methods in Molecular Biology 741, Springer Science+Business Media). The effect of test compounds on thermal stability of NBD1 was evaluated by differential static light scattering (DSLS) using the Harbinger Stargazer-384 instrument (Epiphyte Three, Toronto, Canada). Test compounds were dissolved and diluted to desired concentrations in 100% DMSO. The compounds or DMSO controls (100 nL) were stamped into wells of a […] low volume optical plate (Corning Inc., Corning, NY) using the Echo 555 acoustic liquid handler (Labcyte Inc., San Jose, CA).
NBD1 protein was diluted to 0.2 mg/ml in S200 buffer (50 mM Tris-HCl, 150 mM NaCl, 5 mM MgCl2, 2 mM ATP, 2 mM DTT, pH7.6) containing 1% glycerol. 10 uL of protein solution was aliquoted into the 384-well plate harboring the test compounds and 10 uL mineral oil was overlayed onto the protein solution, using the epMotion robotic liquid handler (Eppendorf North America, Hauppauge, NY). After placing into the Stargazer instrument, the plate was heated at 1° C. per minute to 70° C. Images were captured from 25° C. to 70° C. every 0.5° C. At the end of the experiment run, instrument software integrated image files and analyzed data automatically. A […] regression curve was generated for each well, representing the increase in light scattering over time. A temperature of aggregation (Tagg) was calculated based on the inflection point of the curve. To better compare data across experiments the average Tagg for DMSO control wells was calculated and subtracted from values for wells containing compounds to obtain a “ΔTagg” value. These ΔTagg values reflect stabilizing efficacy of the compounds.

| SMILES | DSLS NBD1/3D Human Stability delta-T (° C.) @ 100 (μM) |
| --- | --- |
| Cc1nc(Cc2nnc(-c3cccc(Oc4ccc5[nH]ccc5c4)c3)[nH]2)cs1 [Compound 17, 4-((5-(3-((1H-indol-5-yl)oxy)phenyl)-4H-1,2,4-triazol-3-yl)methyl)-2-methylthiazole] | C (C: ≤4° C.) |
| Cn1cc(Cc2nnc(-c3cccc(Oc4ccc5[nH]ccc5n4)c3)[nH]2)cn1 [Compound 31, 5-(3-(5-((1-methyl-1H-pyrazol-4-yl)methyl)-4H-1,2,4-triazol-3-yl)phenoxy)-1H-pyrrolo[3,2-b]pyridine] | C (C: ≤4° C.) |
| CC(c1cccc(CCC(=O)O)c1F)c1nc(-c2cc(Oc3c(F)cc4[nH]ccc4c3F)ccc2F)n2c1CCCC2 (stereo not shown) [Compound 47, 3-(3-(1-(3-(5-((4,6-difluoro-1H-indol-5-yl)oxy)-2-fluorophenyl)-5,6,7,8-tetrahydroimidazo[1,5-a]pyridin-1-yl)ethyl)-2-fluorophenyl)propanoic acid] | C (C: ≤4° C.) |
| O=C(NCC(O)C(F)(F)F)c1c(Oc2cccc(-c3nnc(C(O)c4cncs4)[nH]3)c2)ccc2[nH]ccc12 (stereo not shown) [Compound 42, 5-(3-(5-(hydroxy(thiazol-5-yl)methyl)-4H-1,2,4-triazol-3-yl)phenoxy)-N-(3,3,3-trifluoro-2-hydroxypropyl)-1H-indole-4-carboxamide] | B (B: 4-8° C.) |
| Cc1cnc(Cc2nnc(-c3cccc(Oc4ccc5[nH]ccc5c4)c3)[nH]2)s1 [Compound 16, 2-((5-(3-((1H-indol-5-yl)oxy)phenyl)-4H-1,2,4-triazol-3-yl)methyl)-5-methylthiazole] | C (C: ≤4° C.) |
| Cc1c(Oc2cccc(-c3nn(Cc4cccc(CCC(=O)O)c4)cc3F)c2)c(F)cc2[nH]ccc12 [Compound 54, 3-(3-((4-fluoro-3-(3-((6-fluoro-4-methyl-1H-indol-5-yl)oxy)phenyl)-1H-pyrazol-1-yl)methyl)phenyl)propanoic acid] | B (B: 4-8° C.) |
| CC(c1noc(-c2cc(Oc3c(F)cc4[nH]ccc4c3F)ccc2F)n1)c1cccc(CCC(=O)O)c1F (stereo not shown) [Compound 53, 3-(3-(1-(5-(5-((4,6-difluoro-1H-indol-5-yl)oxy)-2-fluorophenyl)-1,2,4-oxadiazol-3-yl)ethyl)-2-fluorophenyl)propanoic acid] | B (B: 4-8° C.) |
| c1cc(Oc2ccc3[nH]ccc3c2)cc(-c2nnc(Cc3ccsc3)[nH]2)c1 [Compound 11, 5-(3-(5-(thiophen-3-ylmethyl)-4H-1,2,4-triazol-3-yl)phenoxy)-1H-indole] | C (C: ≤4° C.) |
| Cn1cc(Cc2cnc(-c3cccc(Oc4ccc5[nH]ccc5c4)c3)[nH]2)cn1 [Compound 28, 5-(3-(5-((1-methyl-1H-pyrazol-4-yl)methyl)-1H-imidazol-2-yl)phenoxy)-1H-indole] | C (C: ≤4° C.) |
| Cc1ncc(C(O)c2nnc(-c3cccc(Oc4ccc5[nH]cnc5c4)c3)[nH]2)s1 (stereo not shown) [Compound 35, (5-(3-((1H-benzo[d]imidazol-5-yl)oxy)phenyl)-4H-1,2,4-triazol-3-yl)(2-methylthiazol-5-yl)methanol] | C (C: ≤4° C.) |
| Cc1ncc(Cc2nnc(-c3cccc(Oc4ccc5[nH]ccc5c4)c3)[nH]2)s1 [Compound 18, 5-((5-(3-((1H-indol-5-yl)oxy)phenyl)-4H-1,2,4-triazol-3-yl)methyl)-2-methylthiazole] | B (B: 4-8° C.) |
| COc1cc(C(C)c2cccc(CCC(=O)O)c2F)nn1-c1cc(Oc2c(F)cc3[nH]ccc3c2F)ccc1F (stereo not shown) [Compound 50, 3-(3-(1-(1-(5-((4,6-difluoro-1H-indol-5-yl)oxy)-2-fluorophenyl)-5-methoxy-1H-pyrazol-3-yl)ethyl)-2-fluorophenyl)propanoic acid] | B (B: 4-8° C.) |
| Cn1cc(Cc2nnc(-c3cccc(Oc4ccc5[nH]ccc5c4)c3)[nH]2)cn1 [Compound 25, 5-(3-(5-((1-methyl-1H-pyrazol-4-yl)methyl)-4H-1,2,4-triazol-3-yl)phenoxy)-1H-indole] | C (C: ≤4° C.) |
| NC(=O)CCc1ncc(Cc2cnc(-c3cc(Oc4c(F)cc5[nH]ccc5c4F)ccc3F)[nH]2)s1 [Compound 3, 3-(5-((2-(5-((4,6-difluoro-1H-indol-5-yl)oxy)-2-fluorophenyl)-1H-imidazol-5-yl)methyl)thiazol-2-yl)propanamide] | C (C: ≤4° C.) |
| OCc1c(Oc2cccc(-c3nnc(C(O)c4cncs4)[nH]3)c2)ccc2[nH]ccc12 (stereo not shown) [Compound 40, (5-(3-((4-(hydroxymethyl)-1H-indol-5-yl)oxy)phenyl)-4H-1,2,4-triazol-3-yl)(thiazol-5-yl)methanol] | B (B: 4-8° C.) |
| O=C(O)CCc1cccc(Cc2cc(N3CCCC3=O)n(-c3cc(Oc4c(F)cc5[nH]ccc5c4F)ccc3F)n2)c1 [Compound 58, 3-[3-[[1-[5-[(4,6-difluoro-1H-indol-5-yl)oxy]-2-fluoro-phenyl]-5-(2-oxopyrrolidin-1-yl)pyrazol-3-yl]methyl]phenyl]propanoic acid] | C (C: ≤4° C.) |
| O[C@@H](Cc1cncs1)c1c[nH]c(-c2cccc(Oc3ccc4[nH]ccc4c3)c2)n1 (single isomer, unassigned) [Compound 24] | C (C: ≤4° C.) |
| OC(c1c[nH]c(-c2cccc(Oc3ccc4[nH]ccc4c3)c2)n1)c1nccs1 (stereo not shown) [Compound 21, (2-(3-((1H-indol-5-yl)oxy)phenyl)-1H-imidazol-4-yl)(thiazol-2-yl)methanol] | B (B: 4-8° C.) |
| O=C(O)CCn1ccc(Cc2cnc(-c3cc(Oc4c(F)cc5[nH]ccc5c4F)ccc3F)[nH]2)n1 [Compound 5, 3-(3-((2-(5-((4,6-difluoro-1H-indol-5-yl)oxy)-2-fluorophenyl)-1H-imidazol-5-yl)methyl)-1H-pyrazol-1-yl)propanoic acid] | B (B: 4-8° C.) |
| c1cc(Oc2ccc3[nH]ccc3c2)cc(-c2nnc(Cc3nccs3)[nH]2)c1 [Compound 12, 2-((5-(3-((1H-indol-5-yl)oxy)phenyl)-4H-1,2,4-triazol-3-yl)methyl)thiazole] | C (C: ≤4° C.) |
| Cc1c[nH]c2cc(F)c(Oc3ccc(F)c(-c4ccn(Cc5cnc(CCC(N)=O)s5)n4)c3)cc12 [Compound 7, 3-(5-((3-(2-fluoro-5-((6-fluoro-3-methyl-1H-indol-5-yl)oxy)phenyl)-1H-pyrazol-1-yl)methyl)thiazol-2-yl)propanamide] | C (C: ≤4° C.) |
| CN(C)CCNC(=O)c1c(Oc2cccc(-c3nnc(C(O)c4cncs4)[nH]3)c2)ccc2[nH]ccc12 (stereo not shown) [Compound 41, N-(2-(dimethylamino)ethyl)-5-(3-(5-(hydroxy(thiazol-5-yl)methyl)-4H-1,2,4-triazol-3-yl)phenoxy)-1H-indole-4-carboxamide] | C (C: ≤4° C.) |
